Test results taken from ChEMBL document CHEMBL4257454, “Study on the interaction between the 1,4,5,8-naphthalene diimide-spermine conjugate (NDIS) and DNA using a spectroscopic approach and molecular docking” (Medchemcomm, 2017).
Activity calls are given as the source filed them. The calls are words filed in the database; no cut-off is given here.

Legend:
[1] = tested on: Clupeidae; experiment: Inhibition of ethidium bromide binding to herring sperm DNA assessed as fluorescence quenching of DNA-ethidium bromide complex up to 120 uM after 30 mins by fluorescence spectroscopic assay relative to control; set-up: scale not given: the % may be the effect or the level left
[2] = tested on: Clupeidae; experiment: Binding affinity to herring sperm DNA assessed as hypochromism at 80 uM after 30 mins by UV-visible spectrophotometric method
[3] = tested on: Clupeidae; experiment: Binding affinity to herring sperm DNA assessed as test compound fluorescence quenching by fluorescence spectroscopic method relative to control
[4] = tested on: Clupeidae; experiment: Binding affinity to herring sperm DNA assessed as quenching constant at 310 K by fluorescence spectroscopic method
[5] = tested on: Clupeidae; experiment: Binding affinity to herring sperm DNA assessed as Stern-Volmer quenching constant at 303 K by fluorescence spectroscopic method
[6] = tested on: Clupeidae; experiment: Binding affinity to herring sperm DNA groove assessed as fluorescence quenching at DNA to compound molar ratio of >5.5 by fluorescence spectroscopic method
[7] = tested on: Clupeidae; experiment: Binding affinity to herring sperm DNA at 303 K by fluorescence spectroscopic method
[8] = tested on: Clupeidae; experiment: Binding affinity to herring sperm DNA assessed as iodide quenching at 20 uM after 30 mins by fluorescence method (reference value: 27 L/mol)
[9] = tested on: Clupeidae; experiment: Inhibition of ethidium bromide binding to herring sperm DNA assessed as Stern-Volmer quenching constant at 298 K after 30 mins by fluorescence spectroscopic assay
[10] = tested on: Clupeidae; experiment: Binding affinity to herring sperm DNA at 310 K by fluorescence spectroscopic method
[11] = tested on: Clupeidae; experiment: Binding affinity to herring sperm DNA assessed as Stern-Volmer quenching constant at 298 K by fluorescence spectroscopic method
[12] = tested on: Clupeidae; experiment: Binding affinity to herring sperm DNA assessed as Stern-Volmer quenching constant at 310 K by fluorescence spectroscopic method
[13] = tested on: Clupeidae; experiment: Binding affinity to herring sperm DNA groove assessed as hyperchromic effect at DNA to compound molar ratio of >5.5 after 30 mins by UV-visible spectrophotometric method
[14] = tested on: Clupeidae; experiment: Inhibition of ethidium bromide binding to herring sperm DNA assessed as Stern-Volmer quenching constant at 310 K after 30 mins by fluorescence spectroscopic assay
[15] = tested on: Clupeidae; experiment: Inhibition of ethidium bromide binding to herring sperm DNA assessed as quenching constant at 310 K after 30 mins by fluorescence spectroscopic assay
[16] = tested on: Clupeidae; experiment: Inhibition of ethidium bromide binding to herring sperm DNA at 303 K after 30 mins by fluorescence spectroscopic assay
[17] = tested on: Clupeidae; experiment: Inhibition of ethidium bromide binding to herring sperm DNA assessed as DNA insertion at 3 mg by 1H NMR method
[18] = tested on: Clupeidae; experiment: Inhibition of ethidium bromide binding to herring sperm DNA assessed as quenching constant at 303 K after 30 mins by fluorescence spectroscopic assay
[19] = tested on: Clupeidae; experiment: Binding affinity to herring sperm DNA assessed as positive peak at 16 to 48 uM up to 30 mins by circular dichroism method (reference value: 280 nanometer)
[20] = tested on: Clupeidae; experiment: Binding affinity to herring sperm DNA at 298 K by fluorescence spectroscopic method
[21] = tested on: Clupeidae; experiment: Binding affinity to herring sperm DNA assessed as blue shift at 16 to 48 uM up to 30 mins by circular dichroism method
[22] = tested on: Clupeidae; experiment: Binding affinity to herring sperm DNA at 40 uM after 30 mins in presence of Na+ by fluorescence quenching method
[23] = tested on: Clupeidae; experiment: Binding affinity to herring sperm DNA assessed as quenching constant at 298 K by fluorescence spectroscopic method
[24] = tested on: Clupeidae; experiment: Binding affinity to herring sperm DNA after 30 mins by UV-visible spectrophotometric method
[25] = tested on: Clupeidae; experiment: Inhibition of ethidium bromide binding to herring sperm DNA at 298 K after 30 mins by fluorescence spectroscopic assay
[26] = tested on: Clupeidae; experiment: Binding affinity to herring sperm DNA assessed as red shift at 80 uM after 30 mins by UV-visible spectrophotometric method
[27] = tested on: Clupeidae; experiment: Inhibition of ethidium bromide binding to herring sperm DNA assessed as quenching constant at 298 K after 30 mins by fluorescence spectroscopic assay
[28] = tested on: Clupeidae; experiment: Inhibition of ethidium bromide binding to herring sperm DNA at 310 K after 30 mins by fluorescence spectroscopic assay
[29] = tested on: Clupeidae; experiment: Binding affinity to herring sperm DNA assessed as quenching constant at 303 K by fluorescence spectroscopic method
[30] = tested on: Clupeidae; experiment: Binding affinity to herring sperm DNA groove assessed as up-field shift at 3 mg by 1H NMR method
[31] = tested on: Clupeidae; experiment: Binding affinity to herring sperm DNA assessed as negative peak at 16 to 48 uM up to 30 mins by circular dichroism method (reference value: 210 nanometer)
[32] = tested on: Clupeidae; experiment: Inhibition of ethidium bromide binding to herring sperm DNA assessed as Stern-Volmer quenching constant at 303 K after 30 mins by fluorescence spectroscopic assay

NCCCNCCCCNCCCN1C(=O)c2cccc3cccc(c23)C1=O
Activity [1]: 77.2%
Activity [2]: 40%
Activity [3]: 68.5%

NCCCNCCCCNCCCN1C(=O)c2ccc3c4c(ccc(c24)C1=O)C(=O)N(CCCNCCCCNCCCN)C3=O
Kq [4]: 4.63 ×10¹¹ L/mol
KSV [5]: 5.63 ×10³ L/mol
Activity [6]: Active
Kb [7]: 1.25 ×10⁴ L/mol
Activity [1]: 87.8%
KSV [8]: 18.1 L/mol
KSV [9]: 1.18 ×10⁵ L/mol
Kb [10]: 1.7 ×10⁴ L/mol
KSV [11]: 5.32 ×10³ L/mol
KSV [12]: 4.63 ×10³ L/mol
Activity [13]: Active
KSV [14]: 1.45 ×10⁵ L/mol
Kq [15]: 1.45 ×10¹³ L/mol
Activity [2]: 60.7%
Kb [16]: 1.25 ×10⁵ L/mol
Activity [17]: Active
Kq [18]: 1.28 ×10¹³ L/mol
Activity [19]: 280 nm
Kb [20]: 1.38 ×10⁴ L/mol
Activity [21]: Active
Activity [22]: Active
Kq [23]: 5.32 ×10¹¹ L/mol
Kapp [24]: 1.55 ×10³ L/mol
Activity [3]: 91%
Kb [25]: 1.23 ×10⁵ L/mol
Activity [26]: Active
Kq [27]: 1.18 ×10¹³ L/mol
Kb [28]: 1.21 ×10⁵ L/mol
Kq [29]: 5.63 ×10¹¹ L/mol
Activity [30]: Active
Activity [31]: 245 nm
KSV [32]: 1.28 ×10⁵ L/mol

NCCCCNCCCN
Kapp [24]: 1.47 ×10⁵ L/mol
